Laboratory results published in patent US10744106B2, “Reversibly protected thiolated electrophilic fatty acids as prodrugs” (University of Pittsburgh—Of the Commonwealth System of …, priority 2016, dated 2020).

How the values were obtained:
Type in all cases: cell-based, murine
[1] = tested on: glutamate-cysteine ligase modifier subunit (GCLM); experiment: Nrf2-dependent GCLM transcription in RAW264.7 cells (qPCR, Taqman); conditions: for GCLM transcription, fold vs controls / GCLM mRNA levels, fold: RAW264.7; for GCLM mRNA levels, fold: 16 hours
Description: (§1) Murine macrophage cells (RAW264.7) were treated with the purified thiolated NO2—OA for 4 hours. RNA was extracted using the Trizol method, quantified using nanodrop technology, reversed transcribed into cDNA and then quantitative PCR was performed using Taqman assays. […] The concentration of 50 μM OA-NO2—Sx induced a similar Nrf2 activation profile for HO-1, NQO-1 and GCLM (18.0-, 6.8- and 6.3-fold, respectively) as 5 μM OA-NO2 (23.5-, 7.7-, 6.8-fold for HO-1, NQO1 and GCLM, respectively) at the 4 hour time point.
(§2) Experimental details: In every experiment, RAW264.7 cells were treated with 7.5, 15, 50 and 100 μM OA-NO2—Sx, 5 μM OA-NO2 two concentrations of methanol (MeOH) to match the lowest and highest amount of vehicle (5 and 100 μM) and a media control only. Within each experiment, there were two or three biological replicates per treatment group. After treatment, RNA was extracted using the Trizol method, quantified using nanodrop technology, reversed transcribed into cDNA and then quantitative PCR (qPCR) was performed using Taqman assays. In each qPCR experiment, there were two technical replicates per sample of RNA. The two technical replicates were then averaged for each biological replicate. The bars in the graph represent mean±standard error of the mean (SEM) of the biological replicates.
(§3) Murine macrophage cells (RAW264.7) were treated with 50 μM OA-NO2—Sx, 5 μM OA-NO2, MeOH (the highest amount of vehicle added to RAW cells to match the highest concentration, which is 50 μM for OA-NO2—Sx) and media alone for 4, 8, 16 and 24 hours. RNA was extracted at each time point using the Trizol method, quantified using nanodrop technology, reversed transcribed into cDNA and then quantitative PCR was performed using Taqman assays. […] There was a similar trend for GCLM mRNA levels (FIG. 7) remained elevated for OA-NO2—Sx (30.0-fold) compared to 1.7-fold for 5 μM OA-NO2 treatment at 16 hours.
(§4) Experimental details: Murine macrophage cells (RAW264.7) were treated with 50 μM OA-NO2—Sx, 5 μM OA-NO2, MeOH (the highest amount of vehicle added to RAW cells to match the highest concentration, which is 50 μM for OA-NO2—Sx) and media alone for 4, 8, 16 and 24 hours. RNA was extracted at each time point using the Trizol method, quantified using nanodrop technology, reversed transcribed into cDNA and then quantitative PCR for HO-1, NQO-1 and GCLM (multiplexed with actin) was performed using Taqman assays. Within each independent experiment, every treatment had at least two biological replicates at each time point. The data represents two independent experiments as mean±SEM.

[2] = tested on: heme oxygenase 1 (HO-1); experiment: Nrf2-dependent HO-1 transcription in RAW264.7 cells (qPCR, Taqman); conditions: for HO-1 steady-state mRNA levels, fold vs media and vehicle controls: 8 hours (maximum)
Description: as §1, §2, §3, §4

[3] = tested on: NAD(P)H dehydrogenase quinone 1 (NQO-1); experiment: Nrf2-dependent NQO-1 transcription in RAW264.7 cells (qPCR, Taqman); conditions: for NQO-1 transcription, fold vs controls / NQO-1 mRNA levels, fold: RAW264.7
Description: as §1, §2, §3, §4

[4] = 7.5, 15, 50 and 100 μM, 4 hours, compared to controls

Compound | GCLM transcription, fold vs controls ([1]; 50 μM OA-NO2—Sx, 4 hours) | GCLM mRNA levels, fold ([1]; 50 μM) | Nrf2-dependent transcription of GCLM, dose response [1, 4] | HO-1 transcription, fold vs controls ([2]; 50 μM OA-NO2—Sx, 4 hours, RAW264.7) | HO-1 steady-state mRNA levels, fold vs media and vehicle controls ([2]; 50 μM, RAW264.7) | HO-1 mRNA levels, fold ([2]; 50 μM, 16 hours, RAW264.7) | HO-1 mRNA levels ([2]; 50 μM, 24 hours, RAW264.7) | Nrf2-dependent transcription of HO-1, dose response [2, 4] | NQO-1 transcription, fold vs controls ([3]; 50 μM OA-NO2—Sx, 4 hours) | NQO-1 mRNA levels, fold ([3]; 50 μM, 16 hours) | Nrf2-dependent transcription of NQO-1, dose response [3, 4] | GCLM transcription, fold vs controls ([1]; 5 μM OA-NO2, 4 hours) | GCLM mRNA levels, fold ([1]; 5 μM) | HO-1 transcription, fold vs controls ([2]; 5 μM OA-NO2, 4 hours, RAW264.7) | HO-1 steady-state mRNA levels, fold vs media and vehicle controls ([2]; 5 μM, RAW264.7) | HO-1 mRNA levels ([2]; 5 μM, 16 hours, RAW264.7) | HO-1 mRNA levels ([2]; 5 μM, 24 hours, RAW264.7) | NQO-1 transcription, fold vs controls ([3]; 5 μM OA-NO2, 4 hours) | NQO-1 mRNA levels, fold ([3]; 5 μM, 8 hours) | NQO-1 mRNA levels, fold ([3]; 5 μM, 16 hours)
CCCCCCCCC(SC(CCCCCCCC)C(CCCCCCCC(=O)O)[N+](=O)[O-])C(CCCCCCCC(=O)O)[N+](=O)[O-] (centres unmarked) [OA-NO2—Sx, thiolated nitro-oleic acid] | 6.3 fold | 30.0 fold | dose-dependent increase | 18.0 fold | 116.5 fold | 7.5 fold | returned to basal levels | dose-dependent increase | 6.8 fold | 701.1 fold | dose-dependent increase |  |  |  |  |  |  |  |  | 
Nitro-oleic acid [OA-NO2, reference compound] |  |  |  |  |  |  |  |  |  |  |  | 6.8 fold | 1.7 fold | 23.5 fold | 30.7 fold | returned to baseline | returned to basal levels | 7.7 fold | 115.0 fold | 98.9 fold
